Assays:
Details in all cases: 72 h
Caco-2 [1] = experiment: cell viability relative to DMSO; higher = less toxic
Calu-3 [2] = experiment: as above
HepG2 [3] = experiment: as above
U2OS [4] = experiment: as above
Vero E6 [5] = experiment: as above
Caco-2 [6] = experiment: relative viability EC50 (midpoint between 100% and the lowest measured viability); higher = less toxic
Calu-3 [7] = experiment: as above
U2OS [8] = experiment: as above
Vero E6 [9] = experiment: as above
Caco-2 [10] = experiment: drug sensitivity score (DSS) for viability; higher = more toxic; extreme values may be limits of the assay
Calu-3 [11] = experiment: as above
HepG2 [12] = experiment: as above
U2OS [13] = experiment: as above
Vero E6 [14] = experiment: as above
HepG2 [15] = experiment: relative viability EC50 (midpoint between 100% and the lowest measured viability); higher = less toxic

SMILES | cell viability (Caco-2 [1]; 1 nM) | cell viability (Caco-2 [1]; 10 nM) | cell viability (Caco-2 [1]; 100 nM) | cell viability (Caco-2 [1]; 1000 nM) | cell viability (Caco-2 [1]; 10000 nM) | cell viability (Calu-3 [2]; 1 nM) | cell viability (Calu-3 [2]; 10 nM) | cell viability (Calu-3 [2]; 100 nM) | cell viability (Calu-3 [2]; 1000 nM) | cell viability (Calu-3 [2]; 10000 nM) | cell viability (HepG2 [3]; 1 nM) | cell viability (HepG2 [3]; 10 nM) | cell viability (HepG2 [3]; 100 nM) | cell viability (HepG2 [3]; 1000 nM) | cell viability (HepG2 [3]; 10000 nM) | cell viability (U2OS [4]; 1 nM) | cell viability (U2OS [4]; 10 nM) | cell viability (U2OS [4]; 100 nM) | cell viability (U2OS [4]; 1000 nM) | cell viability (U2OS [4]; 10000 nM) | cell viability (Vero E6 [5]; 1 nM) | cell viability (Vero E6 [5]; 10 nM) | cell viability (Vero E6 [5]; 100 nM) | cell viability (Vero E6 [5]; 1000 nM) | cell viability (Vero E6 [5]; 10000 nM) | relative viability EC50 (Caco-2 [6]) | relative viability EC50 (Calu-3 [7]) | relative viability EC50 (U2OS [8]) | relative viability EC50 (Vero E6 [9]) | drug sensitivity score (Caco-2 [10]) | drug sensitivity score (Calu-3 [11]) | drug sensitivity score (HepG2 [12]) | drug sensitivity score (U2OS [13]) | drug sensitivity score (Vero E6 [14]) | relative viability EC50 (HepG2 [15])
Cc1ccc(-c2csc(NC(=O)c3ccccc3)n2)c(C)c1 [INH1] | 97.2% | 104% | 96.1% | 91.5% | 85.8% | 96.9% | 102% | 101% | 107% | 98.3% | 102% | 104% | 98.8% | 104% | 58.7% | 94.7% | 101% | 95.3% | 96.3% | 96.6% | 102% | 96.8% | 98.4% | 97.5% | 91.1% | > 10 µM | > 10 µM | > 10 µM | > 10 µM | 0.4 | 0 | 1.8 | 0 | 0 | 
COc1cc2ncc(-c3ccccc3)nc2cc1OC [tyrphostin-AG-1296] | 92.7% | 104% | 91.6% | 96.2% | 95.4% | 102% | 86.2% | 91.3% | 84.8% | 100% | 107% | 108% | 98.1% | 106% | 95.8% |  |  |  |  |  | 95.4% | 99.8% | 96.3% | 98% | 99.5% | > 10 µM | > 10 µM |  | > 10 µM | 0 | 0 | 0 |  | 0 | > 10 µM
COc1ccc2[nH]c([S+]([O-])Cc3ncc(C)c(OC)c3C)nc2n1 (stereo not given) [tenatoprazole] |  |  |  |  |  | 109% | 114% | 103% | 96.6% | 105% | 101% | 113% | 104% | 106% | 97.7% |  |  |  |  |  |  |  |  |  |  |  | > 10 µM |  |  |  | 0 | 0 |  |  | > 10 µM
c1ccc(CN(CC2=NCCN2)c2ccccc2)cc1 [antazoline] | 103% | 84.4% | 92.1% | 84% | 70.7% | 90.2% | 105% | 98.3% | 104% | 91.7% | 102% | 91.8% | 90.6% | 96.7% | 103% | 96.5% | 101% | 93.9% | 95% | 90.6% | 99.1% | 102% | 105% | 90.4% | 91.7% |  | > 10 µM | > 10 µM | > 10 µM | 3.4 | 0 | 0 | 0 | 0 | > 10 µM
COc1ccc(-c2oc3cc(OC)ccc3c2C(=O)c2ccc(C#N)cc2)cc1 | 99.7% | 96.4% | 95.3% | 93.6% | 87.2% | 96.4% | 98.8% | 101% | 106% | 102% | 107% | 96.8% | 109% | 92.8% | 74.4% | 98.2% | 103% | 95.2% | 101% | 95.4% | 104% | 101% | 101% | 96.4% | 99% | > 10 µM | > 10 µM | > 10 µM | > 10 µM | 0 | 0 | 2 | 0 | 0 | 
CCCCCCCCCCCCCCCC(=O)OC[C@H](COP(=O)([O-])OCC[N+](C)(C)C)OC(=O)CCCCCCCCCCCCCCC [colfosceril-palmitate] | 115% | 113% | 101% | 95.7% | 71.7% | 100% | 103% | 98.1% | 99.2% | 86.9% | 97.5% | 108% | 93.3% | 101% | 99.7% | 102% | 103% | 94.8% | 101% | 95.9% | 102% | 97.3% | 96.7% | 95.6% | 95.6% |  | > 10 µM | > 10 µM | > 10 µM | 1.9 | 0.2 | 0 | 0 | 0 | > 10 µM
O=c1cc(-c2ccccc2)oc2cc(O)c(O)c(O)c12 [baicalein] | 96.2% | 99.7% | 96.9% | 99.2% | 77.1% | 105% | 101% | 103% | 103% | 87.5% | 92.1% | 102% | 90.8% | 101% | 104% | 99.9% | 97.5% | 101% | 95.2% | 62.6% | 91.4% | 98.3% | 93.1% | 97% | 104% | > 10 µM | > 10 µM |  | > 10 µM | 0.9 | 0 | 0 | 2.6 | 0 | > 10 µM
CC(=O)OCC(=O)[C@@]1(O)CC[C@H]2[C@@H]3CCC4=CC(=O)C=C[C@]4(C)[C@@]3(Cl)[C@@H](Cl)C[C@@]21C [dichlorisone-acetate] | 105% | 103% | 99.7% | 105% | 110% | 98.9% | 107% | 100% | 89.2% | 102% | 96.4% | 94.5% | 99% | 99.3% | 92.4% |  |  |  |  |  | 105% | 102% | 102% | 98.7% | 105% | > 10 µM | > 10 µM |  | > 10 µM | 0 | 0 | 0 |  | 0 | > 10 µM

— the supplement of paper PMC13380429
